From US20130237493A1, “COMBINATION THERAPY OF 4-(CYCLOPROPYLAMINO)-2-(4-(4-(ETHYLSULFONYL)PIPERAZIN-1-YL)PHENYLAMINO)PYRIMIDINE-5-CARBOXAMIDE AND FLUDARABINE” (Portola Pharmaceuticals, Inc., priority 2010, published 2013)

Tested on: primary CLL cells
Experiment: tetrazolium-based (MTS) cell viability assay on fresh primary CLL cells
Design: species or system human
Details: 10 nM to 10 μM, 3 days
Source text: The viability data were normalized to untreated controls and were used to calculate IC50 values.

## CCS(=O)(=O)N1CCN(c2ccc(Nc3ncc(C(N)=O)c(NC4CC4)n3)cc2)CC1 [Compound 2, 4-(cyclopropylamino)-2-(4-(4-(ethylsulfonyl)piperazin-1-yl)phenylamino)pyrimidine-5-carboxamide]
  single agent activity in CLL: single agent activity
